Tests used:
[1] = target: M1 Muscarinic Receptor (Homo sapiens, UniProt P11229); experiment: (S)-BTC titration on M1 in the presence of fixed (R)-THP concentrations; format: cell-based; conditions: with increasing concentration of (R)-THP (58.5, 195, 585 nM)
Protocol: All cells used in the following experiments were clonal populations of Chinese Hamster Ovary (CHO) cells stably expressing the corresponding human muscarinic receptor, except for the M4 cell line, which was a population of CHO cells transiently transfected with the human M4 receptor. […] The procedure was as follows: • 1. Cells were thawed and cultured in cell culture medium (DMEM/F12 containing 10% FBS, 1× penicillin-streptomycin and 600 μg/ml hygromycin B) at 37° C. in 5% (v/v) CO2. • 2. One day before the assays, cells were detached using TrypLE™ and counted using a cell-counter. […] 12,000 cells/well were seeded in 30 μl/well culture medium in a 384-well cell plate and incubated overnight at 37C, 5% (v/v) CO2. • 4. On the assay day, 2× dye solution was prepared following the manual of the FLIPR® Calcium 6 Assay Kit: • i. The dye was diluted with assay buffer (20 mM HEPES in 1× HBSS, PH 7.4); • ii. Probenecid was added to a final concentration of 5 mM; • iii. Cells were vortexed vigorously for 1-2 minutes. • 5. Medium was removed from the cell plate by flicking the cell plate on paper towels. • 6. 10 μl of assay buffer and 10 μl of 2× dye solution was added to each well of the cell plate. • 7. […] Plates were read for 160 sec with 1 sec intervals to obtain the data in agonist mode, then kept at 25° C. in the dark for 30 min. • 11.

[2] = dogs
[3] = system: PCP (antagonist radioligand); conditions: at the tested concentration; negative values set to zero

SMILES: C[C@@H](C[N+](C)(C)C)OC(N)=O.[Cl-] [(S)-BTC, (S)-bethanechol]
- agonist effect of (S)-BTC toward the M1 muscarinic receptor [1]: decreases substantially

SMILES: O[C@@](CCN1CCCCC1)(c1ccccc1)C1CCCCC1 [(R)-THP, (R)-trihexyphenidyl]
- share of total THP that was (R)-THP ([2]; IV 0.2 mg/kg Racemic THP): ~60%
- share of serum THP detected that was (R)-THP ([2]; oral 2 mg/kg Racemic THP, alone or co-dosed with Bethanechol): over 80%
- signal, PCP (antagonist radioligand) [3]: 0.00%
